# Source: paper PMC2346451 (PLoS ONE, 2008)
# Where two headings read alike, the source gives them in different places.
# Key:
# mouse TRPV3 (mTRPV3) = biological target: T1, mouse TRPV3 (mTRPV3) (Mus musculus, UniProt Q8K424); assay: Whole-cell patch clamp of mouse TRPV3 expressed in HEK-293T cells; type: cell-based; conditions: for Increase of agonist-evoked current prior to onset of inhibition: citral 1 mM, n = 7
# T1 sequence (Q8K424 1-791): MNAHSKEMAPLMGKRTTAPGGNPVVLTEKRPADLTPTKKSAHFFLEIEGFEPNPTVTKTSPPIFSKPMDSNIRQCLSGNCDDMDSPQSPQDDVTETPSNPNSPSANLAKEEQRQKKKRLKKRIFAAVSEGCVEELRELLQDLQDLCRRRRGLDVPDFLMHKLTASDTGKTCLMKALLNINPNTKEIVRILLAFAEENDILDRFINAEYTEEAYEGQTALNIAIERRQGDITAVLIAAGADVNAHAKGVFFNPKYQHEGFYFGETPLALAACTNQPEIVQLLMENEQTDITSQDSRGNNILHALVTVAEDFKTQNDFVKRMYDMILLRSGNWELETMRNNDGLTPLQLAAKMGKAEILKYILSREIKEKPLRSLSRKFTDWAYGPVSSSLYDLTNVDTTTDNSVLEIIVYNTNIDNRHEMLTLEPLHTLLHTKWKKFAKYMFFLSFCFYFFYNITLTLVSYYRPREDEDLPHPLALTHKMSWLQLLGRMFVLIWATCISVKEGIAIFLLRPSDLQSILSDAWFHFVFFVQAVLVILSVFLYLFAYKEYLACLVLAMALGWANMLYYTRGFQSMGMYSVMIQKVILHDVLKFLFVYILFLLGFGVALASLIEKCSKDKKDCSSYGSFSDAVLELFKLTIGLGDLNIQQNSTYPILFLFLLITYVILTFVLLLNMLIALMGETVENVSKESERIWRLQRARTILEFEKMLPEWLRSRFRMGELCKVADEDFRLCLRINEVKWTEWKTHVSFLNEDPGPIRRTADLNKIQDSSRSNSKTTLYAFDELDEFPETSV
# Protocol: (§1) Transformed human embryonic kidney-293 (HEK-293T) cells were grown in Dulbecco's modified Eagle's medium (DMEM)+F-12 supplemented with 10% fetal calf serum, and 1% penicillin/streptomycin in 5% CO2 at 37°C. Cells grown to 90% confluence in 35 mm Petri dishes were transiently transfected with plasmid DNA encoding a TRP channel construct (1 µg). Rat TRPV1 (rTRPV1) was cloned into an enhanced green fluorescent protein-containing vector (pTracer-CMV2; Invitrogen, Carlsbad, CA). Chicken TRPV1 (cTRPV1), the chicken rat TRPV1 chimera (crcTRPV1), rat TRPV2 (rTRPV2), mouse TRPV3 (mTRPV3), mouse TRPV4 (mTRPV4), rat TRPM8 (rTRPM8), and rat TRPA1 (rTRPA1), were cloned into pcDNA3 and co-transfected with enhanced green fluorescent protein (0.1 µg) to follow expression. The cTRPV1 and crcTRPV1 clones were kindly provided by Dr. David Julius. Recordings were carried out 24–36 hours after transfection. Cells were split via trypsin EDTA, plated on glass coverslips at 5–10% confluence, and used 2–3 hours later.
# (§2) Electrophysiological experiments were performed using the whole-cell patch-clamp technique at room temperature. Modified Ringer's solution with low chloride and nominal calcium contained (in mM): 130 sodium hydroxide, 5 potassium chloride, 1 magnesium chloride, 10 sodium 4-(2-hydroxyethyl)-1-piperazineethanesulfonic acid, 10 2-(N-morpholino)ethanesulfonic acid, and 20 glucose (pH 7.4; 310 milli-osmolar). […] 2 mM calcium chloride was included in the external solution where noted. To activate TRPV1, the modified Ringer's solution was made at pH 5 (low pH solution) and the chloride concentration was kept to a minimum to prevent contamination of the TRPV1 currents with acid-activated chloride currents. For recordings from heterologously expressing cells, the internal pipette solution contained (in mM): 125 cesium-Methanesulfonate, 10 cesium (1.2-bis(o-aminophenoxy)ethane-N,N,N',N'-tetraacetic acid, 8 sodium chloride, 4 magnesium adenosine triphosphate, and 10 HEPES (pH 7.2; 290 mOSM; nominal free calcium concentrations). For TRPA1 and dorsal root ganglion recordings, the internal pipette solution contained (in mM): 110 cesium-Methanesulfonate, 0.5 cesium4BAPTA, 8 sodium chloride, 0.2 calcium chloride, 4 magnesium-ATP, 4 sodium-GTP, and 10 4-(2-hydroxyethyl)-1-piperazineethanesulfonic acid (pH 7.2; 290 mOSM; 100 nM free calcium internal). MaxChelator was used to calculate the free calcium concentration (http://www.stanford.edu/cpatton/maxc.html).
# (§3) Recordings were obtained using an Axopatch 200B amplifier, Digidata 1322A analog-to-digital converter, and pClamp 8.01 software (Molecular Devices, Union City, CA). Data were low-pass filtered at 2 kHz and digitized at 5 kHz. Borosilicate glass pipettes (World Precision Instruments, Sarasota, FL) were typically 3 MΩ pipette resistance after fire polishing. Cell capacitance was measured for each cell, and access resistance compensated to ∼80%. Recordings were begun ∼5 minutes after initial rupture to ensure initial steady state conditions. Current-voltage (I-V) relations were obtained using a ramp protocol. Voltage ramps (400 ms) from −100 to +40 or +100 mV were applied every 1–2 seconds and the holding potential was either −70 mV or 0 mV (see Figure Legends). A 40 ms step was added at the beginning and end of the ramp (i.e. at −100 mV, +40 mV or +100 mV). Liquid junction potentials were not corrected.
# The dose response curves were fit with the Hill equation, where [drawing 8] and [A] is the concentration of agonist or blocker, N is the Hill coefficient, and KD is the [A] for Imeasured/Imax = 0.5. The term apparent dissociation constant is used in place of the half concentration of excitation and inhibition. […] Averaged data are presented as mean±standard error (S.E.) throughout. Statistical analysis included paired and unpaired Student's t-test comparisons of the data; p values are reported in the text.
# mouse TRPV4 (mTRPV4) = biological target: T2, mouse TRPV4 (mTRPV4) (Mus musculus, UniProt Q9EPK8); assay: Whole-cell patch clamp of mouse TRPV4 expressed in HEK-293T cells; type: cell-based; parameters: key to Agonist efficacy: Ø - not activated
# T2 construct: expressed in transfected cells; host or cells: HEK-293T
# Protocol: as §1, §2
# as §3, with “corrected. […]” for “corrected.”
# [1] = no reference given; cited from earlier work
# T2 sequence (Q9EPK8 whole entry): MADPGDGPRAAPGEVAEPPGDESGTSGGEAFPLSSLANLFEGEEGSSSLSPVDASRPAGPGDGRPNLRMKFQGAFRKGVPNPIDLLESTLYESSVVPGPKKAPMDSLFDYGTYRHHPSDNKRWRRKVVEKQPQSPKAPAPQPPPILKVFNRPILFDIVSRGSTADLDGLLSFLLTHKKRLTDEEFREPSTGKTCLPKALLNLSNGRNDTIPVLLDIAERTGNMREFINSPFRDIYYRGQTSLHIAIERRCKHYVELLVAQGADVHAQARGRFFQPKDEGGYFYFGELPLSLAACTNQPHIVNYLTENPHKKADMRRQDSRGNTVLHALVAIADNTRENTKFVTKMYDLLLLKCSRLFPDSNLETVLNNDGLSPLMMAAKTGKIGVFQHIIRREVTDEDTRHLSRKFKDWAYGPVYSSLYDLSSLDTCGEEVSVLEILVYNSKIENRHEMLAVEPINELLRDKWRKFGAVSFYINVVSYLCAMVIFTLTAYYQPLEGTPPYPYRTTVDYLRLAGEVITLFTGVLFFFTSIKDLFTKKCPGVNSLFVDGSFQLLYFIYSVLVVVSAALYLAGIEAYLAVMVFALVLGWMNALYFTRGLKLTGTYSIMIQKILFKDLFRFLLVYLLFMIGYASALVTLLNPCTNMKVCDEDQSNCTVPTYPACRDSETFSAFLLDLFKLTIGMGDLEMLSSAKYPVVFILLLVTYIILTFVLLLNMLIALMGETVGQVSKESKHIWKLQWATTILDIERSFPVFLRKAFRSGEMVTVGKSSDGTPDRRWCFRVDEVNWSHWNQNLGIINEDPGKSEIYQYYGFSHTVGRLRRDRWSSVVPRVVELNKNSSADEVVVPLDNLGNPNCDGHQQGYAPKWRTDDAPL
structure (smiles),measurement,setting,value
"CC(C)=CCCC(C)=CC=O [citral, 3,7-dimethyl-2,6-octadienal]",Hill coefficient (activation),mouse TRPV3 (mTRPV3),22.3
same,Reversibility of citral inhibition of agonist-evoked current,mouse TRPV3 (mTRPV3),essentially irreversible
same,Increase of agonist-evoked current prior to onset of inhibition,mouse TRPV3 (mTRPV3); +100 mV,1.3±0.1 fold
same,Increase of agonist-evoked current prior to onset of inhibition,mouse TRPV3 (mTRPV3); −100 mV,1.7±0.3 fold
same,Kd,"mouse TRPV3 (mTRPV3); citral activation, nominal external calcium, read-out: Activation KD, app",926 µM
same,Hill coefficient (inhibition),mouse TRPV3 (mTRPV3); citral block of 2-aminoethyldiphenyl borate-evoked current,4.0
same,Kd,"mouse TRPV3 (mTRPV3); citral block of current evoked by 700 µM 2-aminoethyldiphenyl borate, read-out: Inhibition KD, app",465 µM
same,Agonist efficacy I2-APB (100 µM)/Icitral (1 mM),"mouse TRPV3 (mTRPV3); fold larger, −40 mV, n = 6",I2-APB (100 µM)/Icitral (1 mM) 25±14 fold larger (n = 6; −40 mV)
same,Time for >50% inhibition of peak TRP current in continued presence of citral,mouse TRPV3 (mTRPV3); n = 6,≤ 6 s
same,Increase of inward ITRPV3 above baseline,mouse TRPV3 (mTRPV3); −40 mV,38 fold
same,Agonist efficacy,mouse TRPV4 (mTRPV4),Ø
same,Reversibility of citral inhibition of agonist-evoked current,"mouse TRPV4 (mTRPV4); 4α-phorbol-12, 13-didecanoate-evoked",rapidly reversed
same,Effect of citral addition on agonist-induced current,"mouse TRPV4 (mTRPV4); 4α-phorbol-12, 13-didecanoate-induced, n = 9",not increased
same,Hill coefficient (inhibition),"mouse TRPV4 (mTRPV4); citral block of 4α-phorbol-12, 13-didecanoate-evoked current",0.9
same,Kd,"mouse TRPV4 (mTRPV4); read-out: Inhibition KD, app",32 µM
same,log P (oil/water) coefficient,[1],three
